In patent publication US20070203121A1, “SUBSTITUTED INDOLE COMPOUNDS, THEIR PREPARATION AND USE IN MEDICAMENTS” (LABORATORIOS DEL DR. ESTEVE S.A, priority 2004, published 2007) one finds Ki data, which are given here for five molecules.

SMILES strings stand for the structures.

For this assay, the target named is T1, 5HT6-human recombinant receptor (Homo sapiens, UniProt P50406).
T1 construct: purchased Receptor Biology; host or cells: HEK-293 cells (membranes)
T1 sequence (P50406 whole entry): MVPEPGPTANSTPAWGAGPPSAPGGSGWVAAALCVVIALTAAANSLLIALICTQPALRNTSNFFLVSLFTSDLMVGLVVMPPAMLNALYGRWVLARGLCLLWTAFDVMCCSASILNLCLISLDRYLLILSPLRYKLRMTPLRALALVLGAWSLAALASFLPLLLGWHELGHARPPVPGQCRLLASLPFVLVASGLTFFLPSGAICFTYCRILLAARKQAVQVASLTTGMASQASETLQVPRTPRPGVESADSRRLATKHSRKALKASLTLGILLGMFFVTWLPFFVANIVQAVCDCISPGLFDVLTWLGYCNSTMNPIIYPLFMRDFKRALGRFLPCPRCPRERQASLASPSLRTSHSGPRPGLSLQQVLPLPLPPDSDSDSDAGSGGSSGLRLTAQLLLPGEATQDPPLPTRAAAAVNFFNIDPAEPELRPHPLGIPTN
The experiment in a line: Binding to Serotonin Receptor 5-HT6 ([3H]-LSD displacement). Conditions: membranes of HEK-293 cells expressing the receptor; radioligand [3H]-LSD 2.7 nM; 60 minutes at 37° C.; triplicate. Here is the method: I) Binding to Serotonin Receptor 5-HT6
Cell membranes of HEK-293 cells expressing the 5HT6-human recombinant receptor were supplied by Receptor Biology. In said membranes the receptor concentration is 2.18 pmol/mg protein and the protein concentration is 9.17 mg/ml. The experimental protocol follows the method of B. L. Roth et al. [B. L. Roth, S. C. Craigo, M. S. Choudhary, A. Uluer, F. J. Monsma, Y. Shen, H. Y. Meltzer, D. R. Sibley: Binding of Typical and Atypical Antipsychotic Agents to 5-Hydroxytryptamine-6 and Hydroxytryptamine-7 Receptors. The Journal of Pharmacology and Experimental Therapeutics, 1994, 268, 1403] with the following slight changes. The respective part of the literature description is hereby incorporated by reference and forms part of the disclosure.
The commercial membrane is diluted (1:40 dilution) with the binding buffer: 50 mM Tris-HCl, 10 mM MgCl2, 0.5 mM EDTA (pH 7.4). The radioligand used is [^3H]-LSD at a concentration of 2.7 nM with a final volume of 200 μl. Incubation is initiated by adding 100 μl of membrane suspension, (≈22.9 μg membrane protein), and is prolonged for 60 minutes at a temperature of 37° C. The incubation is ended by fast filtration in a Brandel Cell Harvester through fiber glass filters made by Schleicher & Schuell GF 3362 pretreated with a solution of polyethylenimine at 0.5%. The filters are washed three times with three milliliters of buffer Tris-HCl 50 mM pH 7.4. The filters are transferred to flasks and 5 ml of Ecoscint H liquid scintillation cocktail are added to each flask. The flasks are allowed to reach equilibrium for several hours before counting with a Wallac Winspectral 1414 scintillation counter. Non-specific binding is determined in the presence of 100 μM of serotonin. Tests were made in triplicate. The inhibition constants (Ki, nM) were calculated by non-linear regression analysis using the program EBDA/LIGAND described in Munson and Rodbard, Analytical Biochemistry, 1980, 107, 220, the respective part of which is hereby incorporated by reference and forms part of the disclosure.
The binding of the substituted indole compounds to the 5-HT6 receptor was determined as described above.
`Cc1[nH]c2ccc(NS(=O)(=O)c3c(Cl)nc4sccn34)cc2c1C(=O)C(=O)N(C)C` [Example 22, 2-(5-(6-chloroimidazo[2,1-b]thiazole-5-sulfonamido)-2-methyl-1H-indol-3-yl)-N,N-dimethyl-2-oxoacetamide]: the inhibitory constant (Ki) is 52.8 nM.
To `CCN(CC)C(=O)C(=O)c1c[nH]c2ccc(NS(=O)(=O)c3c(Cl)nc4sccn34)cc12` [Example 9, 2-[5-(6-Chloro-imidazo[2,1-b]thiazole-5-sulfonylamino)-1H-indol-3-yl]-N,N-diethyl-2-oxo-acetamide] belongs 224 nM; to `CN(C)C(=O)C(=O)c1c[nH]c2cccc(NS(=O)(=O)c3c(Cl)nc4sccn34)c12` [Example 13, 2-[4-(6-Chloro-imidazo[2,1-b]thiazole-5-sulfonylamino)-1H-indol-3-yl]-N,N-dimethyl-2-oxo-acetamide], 161 nM.
For `CN(C)C(=O)C(=O)c1c[nH]c2ccc(NS(=O)(=O)c3c(Cl)nc4sccn34)cc12` [Example 10, 2-[5-(6-Chloro-imidazo[2,1-b]thiazole-5-sulfonylamino)-1H-indol-3-yl]-N,N-dimethyl-2-oxo-acetamide] the value was 18.4 nM; for `CN(C)C(=O)C(=O)c1c[nH]c2ccc(NS(=O)(=O)c3ccc(Oc4ccccc4)cc3)cc12` [Example 20, N,N-Dimethyl-2-[5-[(4-phenoxy-phenyl)-1-sulfonylamino]-1H-indol-3-yl]-2-oxo-acetamide], 113 nM.
